Read-outs that look alike come from different tables or passages of the source.
How the values were obtained:
VeroE6/TMPRSS2 cells = settings: 20 h
J2 HIE monolayers [1] = format: cell-based; settings: human, 20 h, 50 μM
Procedure: Supplementary file : FIG S2 Cell viability and cytotoxicity of dasabuvir in J2 HIE monolayers. J2 HIE monolayers were treated with DSB at the indicated concentrations for 20 h. Cell viability or cytotoxicity was measured using CellTiter-Glo luminescent cell viability assay or the Cytotoxicity LDH assay kit-WST, respectively. Results were normalized to DMSO control. Values represent the mean ± SD (n = 7). Download FIG S2, TIF file, 0.8 MB.

GII.4 HuNoV = GII.4 HuNoV infection of HIE monolayers, viral genome equivalents by RT-qPCR; format: cell-based, human norovirus; settings: Norovirus
[2] = tested on: RdRp of Middle East respiratory syndrome coronavirus (MERS-CoV); settings: cited from earlier work
J2 HIE monolayers [3] = test: Cytotoxicity by LDH assay in J2 HIE monolayers
GII.3 HuNoV = test: microbe, parasite or virus in culture; format: cell-based, human norovirus; settings: Norovirus, read-out: EC50, HuNoV GEs
HCV of genotype 1 = tested on: HCV of genotype 1; parameters: method as in PMID 25534735; settings: HCV genotype 1 subgenomic replicon; cited from earlier work
[4] = healthy volunteers, 1,000 mg twice a day [BID] for 10 days; read-out: maximum plasma concentration (Cmax); cited from earlier work
SARS-CoV-2 = format: cell-based; settings: VeroE6/TMPRSS2 cells, 20 h
SARS-CoV-2 (WK-521) = test: SARS-CoV-2 infection of J2 HIE monolayers, viral GEs by RT-qPCR; settings: 20 μM, 20 hpi
[5] = tested on: human rotavirus A (RVA) Wa strain; format: cell-based; settings: 20 μM, J2 HIE monolayers, 20 hpi

**Q.** For COc1c(-c2ccc3cc(NS(C)(=O)=O)ccc3c2)cc(-n2ccc(=O)[nH]c2=O)cc1C(C)(C)C [Dasabuvir], which cytotoxicity (VeroE6/TMPRSS2 cells) is on record?
**A.** no cytotoxicity

**Q.** And the “reduction of cellular ATP (cell viability)” value (J2 HIE monolayers [1])?
**A.** 17%

**Q.** What about the activity at 10 µM (GII.4 HuNoV; 24 h, compound 10 μM, n = 1, J2 HIE monolayers, GII.4 HuNoV, 24 hpi, normalized to DMSO control, read-out: (%) HuNoV GEs) of the same molecule?
**A.** 1.14%

**Q.** And the EC50 (GII.4 HuNoV; J2 + GII.4, 20 hpi, read-out: EC50, HuNoV GEs)?
**A.** 11.7 µM

**Q.** What about the EC50 (GII.4 HuNoV; J3 + GII.4, 20 hpi, read-out: EC50, HuNoV GEs) of the same molecule?
**A.** 12.4 µM

**Q.** And the EC50 (GII.4 HuNoV; range over GII.4 and GII.3 HuNoV in J2 and J3 HIEs (Fig. 2), read-out: EC50 values, HuNoV infection)?
**A.** 7.55 to 12.4 µM

**Q.** And the “inhibition of RdRp activity” value [2]?
**A.** partially inhibits

**Q.** And the “increase of LDH release (cytotoxicity)” value (J2 HIE monolayers [3]; 50 μM, 20 h, uninfected J2 monolayers, compared to DMSO control)?
**A.** 10%

**Q.** What about the “(%) Cytotoxicity” value (J2 HIE monolayers [3]; compound 10 μM, n = 1, LDH assay, J2 HIE monolayers infected with GII.4 HuNoV, 24 hpi, normalized to DMSO control) of the same molecule?
**A.** -4.83%

**Q.** What about the EC50 (GII.3 HuNoV; J2 + GII.3, 20 hpi) of the same molecule?
**A.** 7.55 µM

**Q.** And the EC50 (GII.3 HuNoV; J3 + GII.3, 20 hpi)?
**A.** 9.85 µM

**Q.** What about the EC50 (HCV of genotype 1) of the same molecule?
**A.** < 0.01 µM

**Q.** What about the Cmax [4] of the same molecule?
**A.** ~5.61 µM

**Q.** And the “effect on SARS-CoV-2 infection” value (SARS-CoV-2)?
**A.** inhibition

**Q.** What about the “fold decrease of SARS-CoV-2 infection (viral GEs)” value (SARS-CoV-2 (WK-521)) of the same molecule?
**A.** 26.9 fold

**Q.** And the “fold decrease of RVA infection (viral GEs)” value [5]?
**A.** 2.75 fold
